Assay results reported in patent publication EP0001503A1, “Antithrombotic compositions containing benzisothiazolones” (BEECHAM GROUP PLC, priority 1977, dated 1979).
Counter-ions that a name gives are not always drawn. Marks after values point to notes of the source that are not given here.

Experiments:
[1] = test system: platelet aggregation (collagen); assay: Inhibition of collagen-induced platelet aggregation, guinea pig ex vivo (turbidimetric, PRP); format: in vivo; details: p.o.
Method: (§1) These compounds were tested for inhibition of platelet aggregation alone and in combination with certain anti-inflammatory agents, in the guinea pig ex vivo by the following method: • Ten male guinea pigs weighing 250-300 g were orally dosed 1% methyl cellulose (5 ml/kg) in which the compound under test was suspended. Ten control animals were given methyl cellulose alone. […] Platelet-rich- plasma (PRP) was prepared from each blood sample by centrifigation at 450 g to 5 min. The platelet concentration in each sample or PRP was adjusted with auto- logous platelet-poor-plasma to give a count of […] PRP. Aggregation was measured turbido- metrically (G.V.R. Born, 1962, Nature, 194, 927-929) at 39° using a Bryston aggregometer coupled to a penrecorder. The concentration of callogen producing approximately 50% maximal aggregation and the concentration of ADP producing first-phase aggregation were compared in PRP samples from control and drug treated animals.
(§2) In the tables the dose ratio represents the ratio of the concentration of aggregating agent to cause aggregation in PRP from drug-treated animals to the concentration of aggregating agent to cause aggregation in PRP from control animals.

[2] = test system: platelet aggregation (ADP); assay: Inhibition of ADP-induced platelet aggregation, guinea pig ex vivo (turbidimetric, PRP); format: in vivo; details: p.o.
Method: as §1, §2

[3] = Table 1, PRP 2 h after dosing, mmol(mg)/kg: Aspirin 0.15 (27), Compound A 0.08 (20), combination 0.15 (27)+0.08 (20)
[4] = Table 2, 2 h, mmol(mg)/kg: Aspirin 0.15 (27), Compound B 0.08 (22), combination 0.15 (27)+0.08 (22)
[5] = Table 4, 2 h, mmol(mg)/kg: Aspirin 0.15 (27), Compound C 0.6 (217), combination 0.15 (27)+0.6 (217)
[6] = Table 5, 2 h, mmol(mg)/kg: Aspirin 0.15 (27), Compound D 0.08 (31), combination 0.08 (31)+0.15 (27)
[7] = Table 6, 2 h, mmol(mg)/kg: Aspirin 0.15 (27), Compound D 0.15 (59), Compound D Aspirinate Salt 0.15 (88)
[8] = Table 1, ADP 0.5μM, 2 h, mmol(mg)/kg: Aspirin 0.15 (27), Compound A 0.08 (20), combination 0.15 (27)+0.08 (20)
[9] = Table 1, 2 h, mmol(mg)/kg: Aspirin 0.15 (27), Compound A 0.08 (20), combination 0.15 (27)+0.08 (20)
[10] = Table 2, ADP 0.5μM, 2 h, mmol(mg)/kg: Aspirin 0.15 (27), Compound B 0.08 (22), combination 0.15 (27)+0.08 (22)
[11] = Table 4, ADP 0.5μM, 2 h, mmol(mg)/kg: Aspirin 0.15 (27), Compound C 0.6 (217), combination 0.15 (27)+0.6 (217)
[12] = Table 5, ADP 0.5µM, 2 h, mmol(mg)/kg: Aspirin 0.15 (27), Compound D 0.08 (31), combination 0.08 (31)+0.15 (27)
[13] = Table 6, ADP 0.5µM, 2 h, mmol(mg)/kg: Aspirin 0.15 (27), Compound D 0.15 (59), Compound D Aspirinate Salt 0.15 (88)
[14] = Table 3, 2 h, mmol(mg)/kg: Indomethacin 0.003 (1), Compound B 0.08 (22), combination 0.003 (1)+0.08 (22)
[15] = Table 3, ADP 0.5µM, 2 h, mmol(mg)/kg: Indomethacin 0.003 (1), Compound B 0.08 (22), combination 0.003 (1)+0.08 (22)

CC(=O)Oc1ccccc1C(=O)O [Aspirin, aspirin, reference compound]
Dose-ratio vs. Coll. [1, 3]: 2.2* | Dose-ratio vs. Coll. [1, 4]: 2.2* | Dose-ratio vs. Coll. [1, 5]: 2.2* | Dose-ratio vs. Coll. [1, 6]: 2.2* | Dose-ratio vs. Coll. [1, 7]: 2.2* | % Inhibition of ADP (0.5µM) [2, 8]: 16% | % Inhibition of ADP 1μM [2, 9]: 0% | Dose-ratio vs. ADP [2, 3]: 1.3 | % Inhibition of ADP (0.5µM) [2, 10]: 0% | Dose-ratio vs. ADP [2, 4]: 1.3 | % Inhibition of ADP (0.5µM) [2, 11]: 0% | Dose-ratio vs. ADP [2, 5]: 1.3 | % Inhibition of ADP (0.5µM) [2, 12]: 0% | Dose-ratio vs. ADP [2, 6]: 1.3 | % Inhibition of ADP (0.5µM) [2, 13]: 0% | Dose-ratio vs. ADP [2, 7]: 1.3

O=c1c2ccccc2sn1CCN1CCCCC1 [Compound A, 2-[2-(1-piperidyl)ethyl] 1,2-benzisothiazol-3-one]
Dose-ratio vs. Coll. [1, 3]: 8.3* | % Inhibition of ADP (0.5µM) [2, 8]: 26% | % Inhibition of ADP 1μM [2, 9]: 0% | Dose-ratio vs. ADP [2, 3]: 1.4*

O=c1c2ccccc2sn1CCCN1CCCCC1 [Compound B, 2-[3-(1-piperidyl)propyl]-1,2-benzisothiazol-3-one]
Dose-ratio vs. Coll. [1, 4]: 9.0* | Dose-ratio vs. Coll. [1, 14]: 9.0* | % Inhibition of ADP (0.5µM) [2, 10]: 57* % | Dose-ratio vs. ADP [2, 4]: 1.7* | % Inhibition of ADP (0.5µM) [2, 15]: 57* % | Dose-ratio vs. ADP [2, 14]: 1.7*

COc1cc2sn(CCN3CC4CCC(CC4)C3)c(=O)c2cc1OC [Compound C, 2-[2-(3-azabicyclo[3.2.2]non-3-yl)ethyl)-5,6-dimethoxy-1,2-benzisothiazol-3-one]
Dose-ratio vs. Coll. [1, 5]: >13.9* | % Inhibition of ADP (0.5µM) [2, 11]: 92* % | Dose-ratio vs. ADP [2, 5]: 3.3*

COc1cc2sn(CCCCN3CC4CCC(CC4)C3)c(=O)c2cc1OC [Compound D Aspirinate Salt, Aspirin salt of 2-(4-(3-azabicyclo[3.2.2.]non-3-yl)butyl)-5,6-dimethoxy-1,2-benzisothiazol-3-one]
Dose-ratio vs. Coll. [1, 7]: >57* | % Inhibition of ADP (0.5µM) [2, 13]: 91* % | Dose-ratio vs. ADP [2, 7]: 4.6*

COc1cc2sn(CCCCN3CC4CCC(CC4)C3)c(=O)c2cc1OC [Compound D, 2-[4-(3-azabicyclo[3.2.2]non-3-yl)butyl]-5,6-dimethoxy-1,2-benzisothiazol-3-one]
Dose-ratio vs. Coll. [1, 6]: 5.4* | Dose-ratio vs. Coll. [1, 7]: >15.4* | % Inhibition of ADP (0.5µM) [2, 12]: 86* % | Dose-ratio vs. ADP [2, 6]: 2.6* | % Inhibition of ADP (0.5µM) [2, 13]: 61* % | Dose-ratio vs. ADP [2, 7]: 3.2*

COc1ccc2c(c1)c(CC(=O)O)c(C)n2C(=O)c1ccc(Cl)cc1 [Indo-methacin, Indomethacin, reference compound]
Dose-ratio vs. Coll. [1, 14]: 1.7* | % Inhibition of ADP (0.5µM) [2, 15]: 0% | Dose-ratio vs. ADP [2, 14]: 1.1
